Experiments:
[1] = tested on: Brain microsomal Na+/Ca2+ exchanger; test: Brain microsomal Na+/Ca2+ exchanger (Na-dependent 45Ca uptake); format: biochemical; settings: rat brain microsomes; read-out: Inhibitory activity against Na+/Ca2+ exchange (Na-dependent 45Ca uptake), IC50 value, Brain
Protocol: Method of Measuring for Brain Microsomal Na^+/Ca^2+ Exchanger
Brain microsomes (1.5 mg/ml) obtained from 8-week-old rats were pre-treated with 160 mM NaCl-containing buffer to cause Na loading into membrane vesicles. This suspension was diluted 50-fold with 20 μM ^45CaCl2-containing buffer to induce ^45Ca uptake, followed by dilution with the buffer (0° C.) to stop the reaction. The membrane vesicles were immediately collected on a nitrocellulose filter. Subsequently, ^45Ca trapped inside the membrane vesicles was determined by liquid scintillation counting. The above assay for Na^+/Ca^2+ exchange activity in brain microsomes was performed according to the procedures described in J. Biol. Chem., vol. 257, p. 5111 (1982).

[2] = biological target: T1, Canine cardiac sarcolemmal vesicle Na+/Ca2+ exchanger (Canis lupus familiaris, UniProt P23685); test: Canine cardiac sarcolemmal vesicle Na+/Ca2+ exchanger (Na-dependent 45Ca uptake); format: biochemical; settings: canine cardiac sarcolemmal vesicles; read-out: Inhibitory activity against Na+/Ca2+ exchange (Na-dependent 45Ca uptake), IC50 value, Cardiac sarcolemma
T1 construct: Canine cardiac sarcolemmal vesicles (0.5 mg/ml) were prepared by centrifugal fractionation; from tissue; host or cells: canine cardiac sarcolemmal vesicles
Protocol: Method of Measuring for Canine Cardiac Sarcolemmal Vesicle Na^+/Ca^2+ Exchanger
Canine cardiac sarcolemmal vesicles (0.5 mg/ml) were prepared by centrifugal fractionation as described in Methods enzymology, vol. 157, p. 85 (1988) and suspended in Solution A (20 mM MOPS-Tris (pH 7.4), 160 mM NaCl or KCl), followed by incubation at room temperature for about one hour to cause Na or K loading into the vesicles. This suspension was diluted 50-fold with 20 μM ^45CaCl2-containing buffer to induce ^45Ca uptake, followed by dilution with the buffer (0° C.) to stop the reaction. The membrane vesicles were immediately collected on a nitrocellulose filter. Subsequently, ^45Ca trapped inside the membrane vesicles was determined by liquid scintillation counting. The Na^+/Ca^2+ exchange activity was evaluated by subtracting the value obtained for K loading from the value obtained for Na loading. The above assay for Na^+/Ca^2+ exchange activity in canine cardiac sarcolemmal vesicles was performed according to the procedures described in J. Biol. Chem., vol. 257, p. 5111 (1982).

[3] = biological target: renal cortex-derived Na+/Ca2+ exchanger (NCX1) (Rattus norvegicus, UniProt Q01728); test: Rat renal cortex-derived BLMVs Na+/Ca2+ exchange activity (Na-dependent 45Ca uptake); format: biochemical; settings: read-out: Inhibitory activity against Na+/Ca2+ exchange (Na-dependent 45Ca uptake), IC50 value, Renal cortex
Protocol: BLMVs were prepared from rat renal cortex and assayed for Na^+/Ca^2+ exchange activity according to the procedures described in Am. J. Physiol., vol. 266, p. F785 (1994). After being excised from rats, the kidneys were placed in ice-cold sucrose buffer ([…], 0.1 mM PMSF, 10 mM Tris-HCl (pH 7.6)) and decapsulated. The isolated cortex was then finely minced in the sucrose buffer and homogenized sequentially with a Dounce-type homogenizer and a Polytron-type homogenizer, followed by centrifugation at 2500 g for 15 minutes to collect the supernatant. Centrifugation was repeated at 24000 g for 20 minutes to collect the white fluffy portion of the pellet. After further addition of the sucrose buffer, the collected fraction was homogenized with a Dounce-type homogenizer, supplemented with Percoll and then centrifuged at 30000 g for 35 minutes to collect the middle layer. After addition of buffer (100 mM KCl, 100 mM mannitol, 5 mM HEPES-Tris (pH 7.4)), centrifugation was carried out at 34000 g for 30 minutes to collect the loose white pellet (BLMVs). […] Subsequently, the filter was washed twice with 2 ml stop solution and then the amount of ^45Ca trapped inside the BLMVs was determined by using liquid scintillation method.

[4] = tested on: Dahl salt-sensitive hypertension rats; test: Dahl salt-sensitive hypertension rat model, systolic blood pressure; format: in vivo; settings: for % change in blood pressure: one hour after administration, systolic
Description: (Creation of Dahl Salt-sensitive Hypertension Rat Model)
Dahl salt-sensitive hypertension rats (7 weeks old) were used in the experiment. They were fed a 4% NaCl high-salt chow (0.6% for normal chow), but were allowed to drink water without any restriction. At two weeks after high-salt loading, the animals confirmed to develop hypertension were divided into the following 4 groups for use in the experiment.
(Experimental Animal Groups)
After loading the high-salt chow for two weeks as described above, an acute experiment was performed. On the day of the experiment, the systolic blood pressure (before administration) was measured for each animal under non-anesthesia conditions using a noninvasive sphygmomanometer. The animals were then administered orally with the solvent or SEA0400(3, 10, or 30 mg/kg) and monitored over time for their systolic blood pressure.

Row | IC50 [1] [µM] | IC50 [2] [µM] | IC50 [3] [µM] | SMILES | % change in blood pressure ([4]; 3 mg/kg oral) [%] | Reduction in blood pressure compared with the solvent group ([4]; 10 mg/kg and 30 mg/kg groups, oral) | % change in blood pressure ([4]; 10 mg/kg oral) [%] | % change in blood pressure ([4]; 30 mg/kg oral) [%]
1 | 11 | 7 | 6.8 | N=C(N)SCCc1ccc(OCc2ccc([N+](=O)[O-])cc2)cc1 [K-BR7943, 2-[2-[4-[nitrobenzyloxy]phenyl]ethyl]isothio-ureamethanesulfonate] | – | – | – | –
2 | 0.2 | – | – | CCOc1ccc(Oc2ccc(OCc3cc(F)ccc3F)cc2)c(N)c1 [SEA0400, 2-[4-[(2,5-difluorophenyl)methoxy]phenoxy]-5-ethoxyaniline] | −9.5±1.8 | significant reduction in blood pressure | −12.0±0.9 | −12.7±3.4

Source: patent US7183322B2, “Remedy for hypertension” (Taisho Pharmaceutical Co., Ltd., priority 2002, dated 2007)
